Calls of active or inactive are those of the source. The calls are words filed in the database; no cut-off is given here.
Legend:
[1] = test system: MKN-45; experiment: Antiproliferative activity against human MKN45 cells after 3 days by CellTiter-Glo assay; type: functional, cell-based; details: MKN-45, 72 h
[2] = species: Homo sapiens; experiment: Ratio of IC50 for cMET Y1230C mutant (unknown origin) to IC50 for wild type cMET (unknown origin)
[3] = species: Homo sapiens; experiment: Ratio of IC50 for cMET Y1230H mutant (unknown origin) to IC50 for wild type cMET (unknown origin)
[4] = test system: KARPAS-299; experiment: Antitumor activity against human KARPAS299 xenograft model assessed as tumor growth inhibition at 50 mg/kg qd; type: functional; details: read-out: TGI
[5] = Permeability of the compound at pH 7.4 by PAMPA; type: ADME; details: read-out: permeability
[6] = Volume of distribution at steady state in CD1 mouse at 2 mg/kg, iv; type: ADME, organism-based; parameters: dose 2 mg/kg, route intravenous; details: in vivo, read-out: Vdss
[7] = Clearance in CD1 mouse at 2 mg/kg, iv; type: ADME, organism-based; parameters: dose 2 mg/kg, route intravenous; details: in vivo
[8] = Half life in CD1 mouse at 2 mg/kg, iv; type: ADME, organism-based; parameters: dose 2 mg/kg, route intravenous; details: in vivo
[9] = molecular target: Cytochrome P450 3A4 (Homo sapiens, UniProt P08684); experiment: Inhibition of CP3A4 (unknown origin)
[10] = Cmax in CD1 mouse at 20 mg/kg, po; type: ADME, organism-based; parameters: dose 20 mg/kg, route oral; details: in vivo
[11] = AUC (0 to last) in CD1 mouse at 20 mg/kg, po; type: ADME, organism-based; parameters: dose 20 mg/kg, route oral, time 0 - last; details: plasma
[12] = Oral bioavailability in CD1 mouse at 20 mg/kg; type: ADME, organism-based; details: in vivo
[13] = test system: KARPAS-299; experiment: Antitumor activity against human KARPAS299 xenograft model assessed as tumor growth inhibition up to 200 mg/kg qd; type: functional, organism-based; parameters: dose 200 mg/kg
[14] = molecular target: Tyrosine-protein kinase ABL2 (Homo sapiens) (UniProt P42684); details: 1 uM
Description: Inhibition of ARG (unknown origin) autophosphorylation at 1 uM

[15] = test system: Mus musculus; experiment: Inhibition of MET autophosphorylation at Y1349 in human MKN45 cells xenografted in mouse at 100 mg/kg, po up to 8 hrs; type: functional, organism-based; parameters: dose 100 mg/kg; details: MKN-45
[16] = molecular target: Hepatocyte growth factor receptor (Homo sapiens, UniProt P08581); details: 1 uM
Description: Inhibition of cMET (unknown origin) autophosphorylation at 1 uM

[17] = molecular target: Tyrosine-protein kinase ABL1 (Homo sapiens) (UniProt P00519); details: 1 uM
Description: Inhibition of Abl (unknown origin) autophosphorylation at 1 uM

[18] = species: Homo sapiens; details: 1 uM
Description: Inhibition of aurora kinase (unknown origin) autophosphorylation at 1 uM

[19] = test system: MKN-45; experiment: Antitumor activity against human MKN45 cells xenografted in nu/nu CD1 mouse model assessed as maximum tumor regression at 50 mg/kg, po qd for 14 days; type: functional
[20] = test system: Mus musculus; experiment: Toxicity in human MKN45 cells xenografted nu/nu CD1 mouse model assessed as body weigh loss at 50 mg/kg, po qd for 14 days; type: organism-based, MKN-45; parameters: dose 50 mg/kg, route oral; details: in vivo, 336 h
[21] = test system: Mus musculus; experiment: Toxicity in human MKN45 cells xenografted nu/nu CD1 mouse model assessed as body weigh loss at 100 mg/kg, po qd for 14 days; type: organism-based, MKN-45; parameters: dose 100 mg/kg, route oral; details: in vivo, 336 h
[22] = test system: MKN-45; experiment: Antitumor activity against human MKN45 cells xenografted in nu/nu CD1 mouse model assessed as tumor growth inhibition at 50 mg/kg, po qd for 14 days; type: functional; details: MKN-45, 336 h, read-out: TGI
[23] = test system: MKN-45; experiment: Antitumor activity against human MKN45 cells xenografted in nu/nu CD1 mouse model assessed as tumor growth inhibition at 25 mg/kg, po qd for 14 days; type: functional; details: MKN-45, 336 h, read-out: TGI
[24] = test system: MKN-45; experiment: Antitumor activity against human MKN45 cells xenografted in nu/nu CD1 mouse model assessed as maximum tumor regression at 100 mg/kg, po qd for 14 days; type: functional
[25] = test system: MKN-45; experiment: Antitumor activity against human MKN45 cells xenografted in nu/nu CD1 mouse model assessed as maximum tumor regression at 200 mg/kg, po qd for 14 days; type: functional
[26] = test system: MKN-45; experiment: Antitumor activity against human MKN45 cells xenografted in nu/nu CD1 mouse model assessed as tumor growth inhibition at 100 mg/kg, po qd for 14 days; type: functional; details: MKN-45, 336 h, read-out: TGI
[27] = test system: MKN-45; experiment: Antitumor activity against human MKN45 cells xenografted in nu/nu CD1 mouse model assessed as maximum tumor regression at 25 mg/kg, po qd for 14 days; type: functional
[28] = test system: MKN-45; experiment: Antitumor activity against human MKN45 cells xenografted in nu/nu CD1 mouse model assessed as tumor growth inhibition at 200 mg/kg, po qd for 14 days; type: functional; details: MKN-45, 336 h, read-out: TGI
[29] = test system: Mus musculus; experiment: Toxicity in human MKN45 cells xenografted nu/nu CD1 mouse model assessed as body weigh loss at 200 mg/kg, po qd for 14 days; type: organism-based, MKN-45; parameters: dose 200 mg/kg, route oral; details: in vivo, 336 h
[30] = test system: Mus musculus; experiment: Toxicity in human MKN45 cells xenografted nu/nu CD1 mouse model assessed as body weigh loss at 25 mg/kg, po qd for 14 days; type: organism-based, MKN-45; parameters: dose 25 mg/kg, route oral; details: in vivo, 336 h

C[C@@H](Oc1c(N)ncc2c(-c3cccnc3)coc12)c1c(Cl)ccc(F)c1Cl
IC50 [1]: 2700 nM

CC(Oc1c(N)ncc2c(-c3cnn(C4CCNCC4)c3)coc12)c1c(Cl)cccc1Cl (racemic)
IC50 [1]: 2000 nM

C[C@@H](Oc1c(N)ncc2c(-c3ccncc3)coc12)c1c(Cl)ccc(F)c1Cl
IC50 [1]: 900 nM

CC(Oc1c(N)ncc2c(-c3cnn(C4CCNCC4)c3)coc12)c1c(Cl)ccc(Cl)c1Cl (racemic)
IC50 [1]: 1300 nM

Nc1ncc2c(-c3cnn(C4CCNCC4)c3)coc2c1OCc1c(Cl)ccc(F)c1Cl
IC50 [1]: 8600 nM

COc1ccc(Cl)c([C@@H](C)Oc2c(N)ncc3c(-c4cnn(C5CCNCC5)c4)coc23)c1Cl
IC50 [1]: 1600 nM

CCCC(Oc1c(N)ncc2c(-c3cnn(C4CCNCC4)c3)coc12)c1c(Cl)ccc(F)c1Cl (racemic)
IC50 [1]: 2700 nM

OCCn1cc(-c2cnc3nnn(Cc4ccc5ncccc5c4)c3n2)cn1
Ratio IC50 [2]: > 600 | Ratio IC50 [3]: 8

C[C@@H](Oc1cc(-c2cnn(C3CCNCC3)c2)cnc1N)c1c(Cl)ccc(F)c1Cl [CRIZOTINIB]
Ratio IC50 [2]: > 600 | Ratio IC50 [3]: 8 | inhibition in vivo at 50 mg/kg [4]: 96%

CC(Oc1c(N)ncc2c(-c3cnn(C4CCNCC4)c3)coc12)c1c(Cl)cc(Cl)cc1Cl (racemic)
IC50 [1]: 3600 nM

COC(=O)N1CC=C(c2coc3c(O[C@H](C)c4c(Cl)ccc(F)c4Cl)c(N)ncc23)CC1
IC50 [1]: 850 nM

CC(=O)N1CCC(n2cc(-c3coc4c(O[C@H](C)c5c(Cl)ccc(F)c5Cl)c(N)ncc34)cn2)CC1
IC50 [1]: 670 nM | Papp [5]: 318 ×10⁻⁶ cm/s

C[C@@H](Oc1c(N)ncc2c(-c3cnn(C4CCNCC4)c3)coc12)c1c(Cl)ccc(F)c1Cl
Vd [6]: 12 L/kg | IC50 [1]: 300 nM | clearance [7]: 227 mL/min/kg | half-life [8]: 36 min

C[C@@H](Oc1c(N)ncc2c(C3CCNCC3)coc12)c1c(Cl)ccc(F)c1Cl
IC50 [1]: 3100 nM

C[C@@H](Oc1c(N)ncc2c(C3=CCN(C(=O)N(C)C)CC3)coc12)c1c(Cl)ccc(F)c1Cl
IC50 [1]: 510 nM

CC(=O)N1CC=C(c2coc3c(O[C@H](C)c4c(Cl)ccc(F)c4Cl)c(N)ncc23)CC1
IC50 [1]: 330 nM | Papp [5]: 199 ×10⁻⁶ cm/s

CNC(=O)c1coc2c(O[C@H](C)c3c(Cl)ccc(F)c3Cl)c(N)ncc12
IC50 [1]: 3500 nM

CCC(Oc1c(N)ncc2c(-c3cnn(C4CCNCC4)c3)coc12)c1c(Cl)ccc(F)c1Cl (racemic)
IC50 [1]: 3600 nM

C#CCC(Oc1c(N)ncc2c(-c3cnn(C4CCNCC4)c3)coc12)c1c(Cl)ccc(F)c1Cl (racemic)
IC50 [1]: 360 nM | IC50 [9]: 1600 nM

C[C@@H](Oc1c(N)ncc2c(-c3cn[nH]c3)coc12)c1c(Cl)ccc(F)c1Cl
IC50 [1]: 3300 nM

CC(Oc1c(N)ncc2c(-c3cnn(C4CCNCC4)c3)coc12)c1cccc(F)c1Cl (racemic)
IC50 [1]: 5100 nM

C[C@@H](Oc1c(N)ncc2c(C3=CCNCC3)coc12)c1c(Cl)ccc(F)c1Cl
IC50 [1]: 450 nM

C[C@@H](Oc1c(N)ncc2c(-c3ccccn3)coc12)c1c(Cl)ccc(F)c1Cl
IC50 [1]: 4600 nM

CC(Oc1c(N)ncc2c(-c3cnn(C4CCNCC4)c3)coc12)c1c(Cl)c(F)cc(F)c1Cl (racemic)
IC50 [1]: 480 nM

C[C@@H](Oc1c(N)ncc2c(-c3ccccc3)coc12)c1c(Cl)ccc(F)c1Cl
IC50 [1]: 11000 nM

CC(Oc1c(N)ncc2c(-c3cnn(C4CCNCC4)c3)coc12)c1c(Cl)ccc(F)c1Cl (racemic)
IC50 [1]: 570 nM | IC50 [9]: > 20000 nM

C[C@@H](Oc1c(N)ncc2c(-c3cnn(C4CCNCC4)c3)coc12)c1c(Cl)ccc(F)c1Cl.Cl.Cl.Cl.Cl
Cmax [10]: 150 nM | AUC(0-t) [11]: 509 ng·h/mL | bioavailability [12]: 35%

C[C@H](Oc1c(N)ncc2c(-c3cnn(C4CCNCC4)c3)coc12)c1c(Cl)ccc(F)c1Cl
IC50 [1]: 4500 nM

CC(Oc1c(N)ncc2c(-c3cnn(C4CCNCC4)c3)coc12)c1cc(F)ccc1Cl (racemic)
IC50 [1]: 6400 nM

CNC(=O)N1CC=C(c2coc3c(O[C@H](C)c4c(Cl)ccc(F)c4Cl)c(N)ncc23)CC1
IC50 [1]: 190 nM

CC(Oc1c(N)ncc2c(-c3cnn(C4CCNCC4)c3)coc12)c1c(Br)ccc(F)c1Cl (racemic)
IC50 [1]: 510 nM

C[C@@H](Oc1c(N)ncc2c(C3=CCN(C(N)=O)CC3)coc12)c1c(Cl)ccc(F)c1Cl
TGI [13]: inactive | Ratio IC50 [2]: 3 | inhibition [14]: > 50% | inhibition [15]: Active | inhibition [16]: > 50% | inhibition [17]: > 50% | inhibition [18]: > 50%

CS(=O)(=O)O.C[C@@H](Oc1c(N)ncc2c(C3=CCN(C(N)=O)CC3)coc12)c1c(Cl)ccc(F)c1Cl
Cmax [10]: 4800 nM | Activity [19]: 0% | Activity [20]: 2% | AUC(0-t) [11]: 5420 ng·h/mL | Activity [21]: 3% | inhibition in vivo at 50 mg/kg [22]: 51% | bioavailability [12]: 83% | inhibition in vivo at 25 mg/kg [23]: 13% | Activity [24]: 27% | Activity [25]: 49% | inhibition in vivo at 100 mg/kg [26]: 100% | Activity [27]: 0% | inhibition in vivo at 200 mg/kg [28]: 100% | Activity [29]: 3% | Activity [30]: 6%

— ChEMBL document CHEMBL2401646 (Bioorg Med Chem Lett, 2013)
